{
  "source": "PubChem BioAssay AID248",
  "about": "(DTP/NCI, 2004)",
  "test_system": "L1210 leukemia ip in BDF1 mice, survival T/C",
  "test": "NCI In Vivo Anticancer Drug Screen. Data for tumor model L1210 Leukemia (intraperitoneal) in B6D2F1 (BDF1) mice",
  "conditions": "endpoint: mean survival time, higher = longer survival",
  "in_short": "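Value reflects the ratio of survival in compound-treated mice to survival in vehicle-treated controls, with both groups carrying the same transplanted tumor.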",
  "key": {"[1]": {"conditions": "dose: 100.0 mg/kg/injection, schedule: Q01DX009 (ip), vehicle: Klucel (hydroxypropylcellulose) (HPC)"}, "[2]": {"conditions": "dose: 200.0 mg/kg/injection, schedule: Q01DX009 (ip), vehicle: Klucel (hydroxypropylcellulose) (HPC)"}},
  "note": "“And” between values parts separate entries of the source, which are not always exact repeats. Equal values may be shown once. Toxic doses and inconclusive results are not listed.",
  "data": [
    {"smiles": "CC[N+](C)(CC)CCNC(c1ccccc1)C(Cl)(Cl)Cl", "note": "(stereo not drawn)", "values": [
      {"measurement": "T/C", "setting": "dose: 5.0 mg/kg/injection, schedule: Q01DX001 (ip), vehicle: saline", "value": "92 % of control"},
      {"measurement": "T/C", "setting": "dose: 10.0 mg/kg/injection, schedule: Q01DX001 (ip), vehicle: saline", "value": "95 % of control"},
      {"measurement": "T/C", "setting": "dose: 20.0 mg/kg/injection, schedule: Q01DX001 (ip), vehicle: saline", "value": "103 % of control"},
      {"measurement": "T/C", "setting": "dose: 40.0 mg/kg/injection, schedule: Q01DX001 (ip), vehicle: saline", "value": "95 % of control"},
      {"measurement": "T/C", "setting": "dose: 80.0 mg/kg/injection, schedule: Q01DX001 (ip), vehicle: saline", "value": "106 % of control"},
      {"measurement": "T/C", "setting": "dose: 100.0 mg/kg/injection, schedule: Q01DX001 (ip), vehicle: saline", "value": "102 % of control"}
    ]},
    {"smiles": "COc1ccc(NC(=O)Nc2ccc(SC)cc2)c(Cl)c1", "values": [
      {"measurement": "T/C", "setting": "[1]", "value": "107 % of control"},
      {"measurement": "T/C", "setting": "[2]", "value": "93 % of control"},
      {"measurement": "T/C", "setting": "dose: 400.0 mg/kg/injection, schedule: Q01DX009 (ip), vehicle: Klucel (hydroxypropylcellulose) (HPC)", "value": "104 % of control"}
    ]},
    {"smiles": "O=C(O)/C(=C\\c1ccc([N+](=O)[O-])cc1)c1cccc2ccccc12", "values": [
      {"measurement": "T/C", "setting": "dose: 50.0 mg/kg/injection, schedule: Q04DX003 (ip), vehicle: Klucel (hydroxypropylcellulose) (HPC)", "value": "94 % of control"},
      {"measurement": "T/C", "setting": "[1]", "value": "93 % of control"},
      {"measurement": "T/C", "setting": "dose: 100.0 mg/kg/injection, schedule: Q04DX003 (ip), vehicle: Klucel (hydroxypropylcellulose) (HPC)", "value": "89 % of control"},
      {"measurement": "T/C", "setting": "[2]", "value": "98 % of control"},
      {"measurement": "T/C", "setting": "dose: 200.0 mg/kg/injection, schedule: Q04DX003 (ip), vehicle: Klucel (hydroxypropylcellulose) (HPC)", "value": "91 % of control"}
    ]},
    {"smiles": "CN=C(N)c1ccc(NC(=O)c2ccc(C(=O)Nc3ccc(C(N)=NC)cc3)cc2)cc1", "values": [
      {"measurement": "T/C", "setting": "dose: 1.9 mg/kg/injection, schedule: Q01DX Z (ip), vehicle: methylcellulose (MC)", "value": "102 % of control"},
      {"measurement": "T/C", "setting": "dose: 2.0 mg/kg/injection, schedule: Q01DX006 (iv), vehicle: saline", "value": "104 % of control"},
      {"measurement": "T/C", "setting": "dose: 2.0 mg/kg/injection, schedule: Q01DX Z (sc), vehicle: saline", "value": "101 % of control"},
      {"measurement": "T/C", "setting": "dose: 2.0 mg/kg/injection, schedule: Q02DX004 (im), vehicle: saline", "value": "103 % of control"},
      {"measurement": "T/C", "setting": "dose: 3.75 mg/kg/injection, schedule: Q01DX Z (ip), vehicle: methylcellulose (MC)", "value": "124 % of control"},
      {"measurement": "T/C", "setting": "dose: 4.0 mg/kg/injection, schedule: Q01DX006 (iv), vehicle: saline", "value": "103 % of control"},
      {"measurement": "T/C", "setting": "dose: 4.0 mg/kg/injection, schedule: Q01DX Z (sc), vehicle: saline", "value": "97 % of control"},
      {"measurement": "T/C", "setting": "dose: 4.0 mg/kg/injection, schedule: Q02DX004 (im), vehicle: saline", "value": "103 % of control"},
      {"measurement": "T/C", "setting": "dose: 5.5 mg/kg/injection, schedule: Q01DX Z (ip), vehicle: methylcellulose (MC)", "value": "177 % of control"},
      {"measurement": "T/C", "setting": "dose: 8.0 mg/kg/injection, schedule: Q01DX006 (iv), vehicle: saline", "value": "106 % of control"},
      {"measurement": "T/C", "setting": "dose: 8.0 mg/kg/injection, schedule: Q01DX010 (oral), vehicle: saline", "value": "106 % of control"},
      {"measurement": "T/C", "setting": "dose: 8.0 mg/kg/injection, schedule: Q01DX Z (sc), vehicle: saline", "value": "94 % of control"},
      {"measurement": "T/C", "setting": "dose: 8.0 mg/kg/injection, schedule: Q02DX004 (im), vehicle: saline", "value": "108 % of control"},
      {"measurement": "T/C", "setting": "dose: 15.0 mg/kg/injection, schedule: Q01DX Z (ip), vehicle: methylcellulose (MC)", "value": "150 % of control and 156 % of control"},
      {"measurement": "T/C", "setting": "dose: 16.0 mg/kg/injection, schedule: Q01DX010 (oral), vehicle: saline", "value": "97 % of control"},
      {"measurement": "T/C", "setting": "dose: 16.0 mg/kg/injection, schedule: Q01DX Z (sc), vehicle: saline", "value": "98 % of control"},
      {"measurement": "T/C", "setting": "dose: 16.0 mg/kg/injection, schedule: Q02DX004 (im), vehicle: saline", "value": "108 % of control"},
      {"measurement": "T/C", "setting": "dose: 30.0 mg/kg/injection, schedule: Q01DX Z (ip), vehicle: methylcellulose (MC)", "value": "171 % of control and 173 % of control"},
      {"measurement": "T/C", "setting": "dose: 32.0 mg/kg/injection, schedule: Q01DX010 (oral), vehicle: saline", "value": "97 % of control"},
      {"measurement": "T/C", "setting": "dose: 42.4 mg/kg/injection, schedule: Q01DX007 (oral), vehicle: carboxymethylcellulose (CMC)", "value": "100 % of control"},
      {"measurement": "T/C", "setting": "dose: 60.0 mg/kg/injection, schedule: Q01DX Z (ip), vehicle: methylcellulose (MC)", "value": "174 % of control"},
      {"measurement": "T/C", "setting": "dose: 64.0 mg/kg/injection, schedule: Q01DX007 (oral), vehicle: carboxymethylcellulose (CMC)", "value": "105 % of control"},
      {"measurement": "T/C", "setting": "dose: 64.0 mg/kg/injection, schedule: Q01DX010 (oral), vehicle: saline", "value": "103 % of control"},
      {"measurement": "T/C", "setting": "dose: 96.0 mg/kg/injection, schedule: Q01DX007 (oral), vehicle: carboxymethylcellulose (CMC)", "value": "103 % of control"},
      {"measurement": "T/C", "setting": "dose: 120.0 mg/kg/injection, schedule: Q01DX Z (ip), vehicle: methylcellulose (MC)", "value": "108 % of control"},
      {"measurement": "T/C", "setting": "dose: 144.0 mg/kg/injection, schedule: Q01DX007 (oral), vehicle: carboxymethylcellulose (CMC)", "value": "108 % of control"},
      {"measurement": "T/C", "setting": "dose: 150.0 mg/kg/injection, schedule: Q01DX Z (oral), vehicle: saline", "value": "100 % of control"},
      {"measurement": "T/C", "setting": "dose: 300.0 mg/kg/injection, schedule: Q01DX Z (oral), vehicle: saline", "value": "93 % of control"},
      {"measurement": "T/C", "setting": "dose: 600.0 mg/kg/injection, schedule: Q01DX Z (oral), vehicle: saline", "value": "115 % of control"}
    ]}
  ]
}
